Laboratory results taken from patent publication US20240294881A1, “CELL CULTURE SUPPLEMENT FOR PRODUCING STEM CELLS, AND METHOD FOR PRODUCING STEM CELLS” (OPTICELL, INC, priority 2021, published 2024).

Assays:
Assay type in all cases: cell-based
[1] = tested on: healthy human adult mammary gland epithelial cells; test: Spheroid culture of healthy human adult mammary gland epithelial cells, microscope observation; settings: culture vessel coated with 0.125% solution; day 2 to day 20; uncoated control grew 2D
Procedure: An aqueous solution of the polypeptide represented by formula (1) (0.125%) (cell culture supplement) was added to a commercial polystyrene-made 6-well flat-bottom culture vessel (CellBIND, Corning) and to a polystyrene-made 96-well round-bottom culture vessel (Nunclon Delta 96U Bottom, Thermo Fisher Scientific) and allowed to stand at 4° C. for 24 hours.
The cell culture supplement solution was then removed and the coated cell culture supplement was dried in a dryer at 37° C. for 96 hours to complete the cell culture supplement coating process. Healthy human adult mammary gland epithelial cells (ATCC PCS-600-010, primary mammary epithelial cells, referred to as “mammary gland epithelial cells” below) were maintained and cultured in a serum-free medium (Promo Cell; mammary epithelial cell growth medium, EGF 5 ng/ml, and insulin 2.5 μg/mL). In the culture vessels coated with the cell culture supplement, the mammary gland epithelial cells floating in 2 mL of the medium were seeded at 2×10^6 cells/well (6-well flat-bottom culture vessel) and the mammary gland epithelial cells floating in 100 μL of the medium were seeded at 2×10^4 cells/well (96-well round-bottom culture vessel). The cells of each culture vessel were cultured at 37° C. under 5% CO2 conditions. […]

[2] = tested on: HOS-143B (human osteosarcoma); test: Study on plate shape: spheroid formation; settings: 96-well plate coated with 0.125% solution, 2 days of culture
Procedure: (§1) 200 μl of an aqueous solution of the polypeptide represented by formula (1) (0.125%) (cell culture supplement) was added to each well of a commercial 96-well flat-bottom plate (Thermo Fisher Scientific), a V-bottom plate (Thermo Fisher Scientific), and a U-bottom plate (Thermo Fisher Scientific) and allowed to stand at 4° C. for 16 hours.
(§2) Thereafter, the excess cell culture supplement was removed, and the remaining solution was dried under reduced pressure at room temperature for 24 hours.
(§3) Hela cells (human cervical epithelial cancer, JCRB9004, National Institutes of Biomedical Innovation, Health and Nutrition) and HOS-143B (human osteosarcoma) were seeded at 2,000 cells/well in a culture plate coated with the cell culture supplement and cultured at 37° C. under 5% CO2 conditions. The medium used was DMEM+10% FBS.

[3] = tested on: Hela cells (human cervical epithelial cancer); test: Study on plate shape: spheroid formation; settings: 96-well plate coated with 0.125% solution, 2 days of culture
Procedure: as §1, §2, §3

[4] = tested on: canine tubule-derived MDCK II cells; test: Inhibition of induction of apoptosis, Caspase-3/7 activity assay in spheroids; settings: U- and V-bottom 96-well plates coated with 0.5% solution diluted 4-fold and 8-fold; day 3 and day 6; concentration-dependent, more pronounced on day 6
Procedure: An aqueous solution of the polypeptide represented by formula (1) was added in two different concentrations (prepared by diluting a 0.5% solution 4-fold and 8-fold) at 100 μL/well and 200 μL/well respectively to two 96-well cell culture plates with different bottom shapes (plate #163320 with a U-shaped bottom; Corning, NY, USA, and plate #277143 with a V-shaped bottom; Thermo Fisher Scientific, MA, USA) and allowed to stand overnight at 4° C. Thereafter, the excess cell culture supplement was removed, and the remaining solution was dried in a clean bench for about 6 hours to complete the treatment with the cell culture supplement. […] After three days and six days, the apoptosis activity per well was measured by using a Caspase activity assay kit (Apo-ONE Homogeneous Caspase-3/7 Assay kit; Promega, WI, USA). […] Thereafter, 100 μL of the culture fluid was transferred to a black 96-well cell culture plate (#237105; Thermo Fisher Scientific, MA, USA), and the value of fluorescence at 590 nm (excitation light at 560 nm) was measured with a plate reader. The value determined by subtracting the value for reagent-only with no cells (blank value) from a measured value was considered to be the measured value for each day of culture, and the values compared to those of the plate not coated with the aqueous solution of the polypeptide represented by formula (1) (control) were plotted.

(Pro-Hyp-Gly)n [cell culture supplement]
spheroid formation [1]: self-assembled to form spheroids | spheroid formation, U-bottom plate [2]: several spheroids | spheroid formation, V-bottom plate [2]: a single spheroid | spheroid formation, flat-bottom plate [2]: Numerous small spheroids | spheroid formation, U-bottom plate [3]: several spheroids | spheroid formation, V-bottom plate [3]: a single spheroid | spheroid formation, flat-bottom plate [3]: Numerous small spheroids | apoptosis (Caspase-3/7 activity) compared with uncoated plate [4]: inhibited
